Data from patent publication US9783488B2 (CHDI Foundation, Inc., priority 2013, dated 2017).

Tests used:
[1] = molecular target: human catalytic domain HDAC4 protein (amino acids 648-1032) (Homo sapiens (Human), UniProt P56524); assay: Inhibition of HDAC4 catalytic domain enzymatic activity, fluorogenic substrate Boc-Lys(Tfa)-AMC; conditions: HDAC4 catalytic domain enzyme, read-out: Biochemical HDAC4 IC50
Excerpt: Analysis of Inhibition of HDAC4 with Class IIa Histone Deacetylase (HDAC) Inhibitors
The potency of Class IIa Histone Deacetylase (HDAC) inhibitors is quantified by measuring the Histone Deacetylase 4 (HDAC4) catalytic domain enzymatic activity using the fluorogenic substrate, Boc-Lys(Tfa)-AMC. The substrate is deacetylated to Boc-Lys-AMC by HDAC4. Cleavage by trypsin results in the release of the fluorophore AMC from the deacetylated substrate. The fluorescence of the sample is directly related to the histone deacetylase activity in the sample.
Serially dilute HDAC inhibitor compounds. […] Stocks of 6 μl aliquots of the 10 mM compound in DMSO are prepared and stored at […]. From one stock aliquot of each compound to be tested and the reference compound, a 16-point serial dilution is prepared according to Table 1 using a 125 μl 16-channel Matrix multi-channel pipette (Matrix Technologies Ltd).
2 μl (200×) of each diluted solution and each control (full activity: 100% DMSO alone or full inhibition 1 mM) is stamped into V-bottomed polypropylene 384-well compound plates using either the Bravo (384-well head from Agilent) or 12.5 μl 16-channel Matrix multi-channel pipette (Matrix Technologies Ltd).
Prepare HDAC4 catalytic domain enzyme (0.2 μg/mL).
Prepare 5× ([…]) Boc-Lys(Tfa)-AMC Substrate. 5× (50 μM) substrate is prepared just prior to the addition to the assay. A 1 mM substrate stock is made by diluting a 100 mM Boc-Lys(Tfa)-AMC in DMSO solution 1:100 by adding it drop-wise to assay buffer (equilibrated to r.t.) while vortexing at slow speed to prevent precipitation. The 5× substrate is prepared by diluting the 1 mM substrate solution 1:20 by adding it drop-wise to assay buffer (equilibrated to r.t.) while vortexing at slow speed to prevent precipitation.
Prepare 3× (30 μM) Developer/Stop Solution.
Assay. 5 μl of each solution of 1:20 diluted compound from above is transferred to a clear bottomed, black, 384-well assay plate using the Bravo or the Janus (384-well MDT head from Perkin Elmer). Using a 16-channel Matrix multi-channel pipette, 35 μl of the working solution of HDAC4 catalytic domain enzyme (0.2 μg/mL in assay buffer) is transferred to the assay plate. […] The assay plate is then shaken for two minutes on an orbital shaker at 900 rpm (rotations per minute). Next the plate is incubated for 15 minutes at 37° C. The reaction is stopped by adding 25 μl of 3× (3 μM) developer/stop solution to the assay plates using either the Bravo, Janus or a 16-channel Matrix multi-channel pipette. Assay plates are then shaken for 5 minutes on an orbital shaker at 1200 rpm. Next, the assay plates are incubated at 37° C. for 1 hour in a tissue culture incubator.

[2] = system: cellular histone deacetylase enzymatic activity in Jurkat E6-1 cells; assay: Inhibition of cellular HDAC activity in Jurkat E6-1 cells, fluorogenic substrate Boc-Lys(Tfa)-AMC; assay type: cell-based; conditions: Homo sapiens, read-out: Cell IC50
Excerpt: Analysis of Inhibition of Cellular HDAC Activity with Class IIa Histone Deacetylase (HDAC) Inhibitors
The potency of Class IIa Histone Deacetylase (HDAC) inhibitors is quantified by measuring the cellular histone deacetylase enzymatic activity using the fluorogenic substrate, Boc-Lys(Tfa)-AMC. After penetration in Jurkat E6-1 cells, the substrate is deacetylated to Boc-Lys-AMC. After cell lysis and cleavage by trypsin, the fluorophore AMC is released from the deacetylated substrate only. The fluorescence of the sample is directly related to the histone deacetylase activity in the sample.
Jurkat E6.1 cell culture and plating. Jurkat E6.1 cells are cultured according to standard cell culture protocols in Jurkat E6.1 Growth Media (RPMI without phenol red, 10% FBS, 1 mM HEPES, and 1 mM Sodium Pyruvate). Jurkat E6.1 cells are counted using a Coulter Counter and resuspended in Jurkat E6.1 growth media at a concentration of 75,000 cells/35 μl. 35 μl or 75,000 cells is seeded into Greiner microtitre assay plates. The plates are then incubated at 37° C. and 5% CO2 while other assay components are being prepared.
Serially dilute HDAC inhibitor compounds. Serial dilutions of the HDAC inhibitors and control reference compound (1-(5-(3-((4-(1,3,4-oxadiazol-2-yl)phenoxy)methyl)-1,2,4-oxadiazol-5-yl)thiophen-2-yl)-2,2,2-trifluoroethanone) are made by first resuspending the lyophilized compound to a final concentration of 10 mM in […]. Stocks of 70 μl aliquots of the 10 mM compound in DMSO are prepared and stored at −20° C. From one stock aliquot of each compound to be tested and the reference compound, a 16-point serial dilution is prepared according to Table 1 using a 125 μl 16-channel Matrix multi-channel pipette.
2 μl (200×) of each diluted solution and each control (full activity: 100% DMSO alone or full inhibition 1 mM) is stamped into V-bottom polypropylene 384-well compound plates using either the Bravo, Janus, or 12.5 μl 16-channel Matrix multi-channel pipette. Each well with the 200× compound solution is diluted 1:20 by the addition of 38 μl Jurkat assay buffer+DMSO (9.5% DMSO, RPMI without phenol red, 0.09% FBS, 9 mM Hepes, and 0.9 mM Sodium Pyruvate equilibrated to r.t.)
Prepare 5× (500 μM) Boc-Lys(Tfa)-AMC substrate. 5× (500 μM) substrate is prepared just prior to the addition to the assay. The 5× substrate is prepared by diluting a 100 mM Boc-Lys(Tfa)-AMC in DMSO solution 1:200 by adding it drop-wise to Jurkat assay medium (RPMI without phenol red, 0.1% FBS, 10 mM Hepes, and 1 mM Sodium Pyruvate equilibrated to 37° C.) while vortexing at slow speed to prevent precipitation.
Prepare 3× Lysis Buffer. 10 mL of 3× lysis buffer is prepared with 8.8 mL of 3× stock lysis buffer (50 mM Tris-HCl, pH 8.0, 137 mM NaCl, 2.7 mM KCl, 1 mM MgCl2, 1% Nonidet P40 Substitute equilibrated to r.t.) and 1.2 mL of 3 mg/mL Trypsin equilibrated to r.t.
Assay. 5 μl of each solution of 1:20 diluted compound from above is transferred to the Greiner microtitre assay plates with 75,000 cells/well using the Bravo. Cells are then incubated for 2 hours at 37° C. and 5% CO2. The assay is then started by adding 10 μl of 5× (500 μM) substrate to the assay plate using either the Bravo or 16-channel Matrix multi-channel pipette. The cells are then incubated for 3 hours at 37° C. and 5% CO2. Next, 25 μl of 3× lysis buffer is added to each well using either the 125 μl 16 channel pipette or the Bravo. The assay plate is then incubated overnight (15-16 hours) at 37° C. and 5% CO2. The following day, the plates are shaken on an orbital shaker for 1 minute at 900 rpm. Finally the top read fluorescence (Excitation: 355 nm, Emission: 460 nm) is measured using PerkinElmer EnVision.

Chain of human catalytic domain HDAC4 protein (amino acids 648-1032) (P56524 648-1032): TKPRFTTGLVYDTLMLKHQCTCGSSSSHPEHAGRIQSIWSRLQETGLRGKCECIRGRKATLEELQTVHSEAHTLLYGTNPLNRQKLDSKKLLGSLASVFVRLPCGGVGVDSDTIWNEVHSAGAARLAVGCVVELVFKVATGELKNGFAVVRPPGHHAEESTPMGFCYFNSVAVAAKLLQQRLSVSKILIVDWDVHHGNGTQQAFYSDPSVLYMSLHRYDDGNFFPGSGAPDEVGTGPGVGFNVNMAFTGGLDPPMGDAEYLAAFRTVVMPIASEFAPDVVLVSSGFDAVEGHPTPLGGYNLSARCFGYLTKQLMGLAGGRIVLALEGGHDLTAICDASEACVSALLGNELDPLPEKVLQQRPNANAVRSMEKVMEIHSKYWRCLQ

SMILES | IC50 [1] | IC50 [2]
Cc1c(F)cccc1[C@]1(C(=O)NO)CC[C@@H](c2ccc3cn(C(F)F)nc3c2)C1 (relative stereo) [Example 65, (1S,3R*)-3-(2-(difluoromethyl)-2H-indazol-6-yl)-1-(3-fluoro-2-methylphenyl)-N-hydroxycyclopentanecarboxamide] | 110 nM | 99 nM
O=C(NO)C1(c2cccc3c2OCC3)CCCC1 [Example 16, 1-(2,3-dihydrobenzofuran-7-yl)-N-hydroxycyclopentanecarboxamide] | > 50000 nM | > 50000 nM
O=C(NO)[C@]1(c2ccccc2)CC[C@@H](c2cncc(F)c2)CC1 [Example 13, (1 r,4r)-4-(5-fluoropyridin-3-yl)-N-hydroxy-1-phenylcyclohexanecarboxamide] | 6400 nM | 48800 nM
Cc1c(F)cccc1[C@]1(C(=O)NO)CC[C@@H](c2ccc3ncn(C)c3c2)C1 (relative stereo) [Example 70, (1S,3R*)-1-(3-Fluoro-2-methylphenyl)-N-hydroxy-3-(1-methyl-1H-benzo[d]imidazol-6-yl)cyclopentanecarboxamide] | 110 nM | 130 nM
Cc1c(C2(C(=O)NO)CCCC2)ccc(F)c1F [Example 29, 1-(3,4-Difluoro-2-methylphenyl)-N-hydroxycyclopentanecarboxamide] | 150 nM | 1410 nM
Cc1c(F)cccc1[C@]1(C(=O)NO)CC[C@@H](c2ccc3oc(C4CC4)nc3c2)C1 (relative stereo) [Example 62, (1S,3R*)-3-(2-cyclopropylbenzo[d]oxazol-5-yl)-1-(3-fluoro-2-methylphenyl)-N-hydroxycyclopentanecarboxamide] | 280 nM | 410 nM
Cc1c(F)cccc1C1(C(=O)NO)CCC(c2cccnc2)C1 (centres unmarked) [Example 1, 1-(3-fluoro-2-methylphenyl)-N-hydroxy-3-(pyridin-3-yl)cyclopentanecarboxamide] | 190 nM | 1230 nM
Cc1c(F)cccc1[C@]1(C(=O)NO)CC[C@@H](c2cnc(OCCN3CCCC3)c(F)c2)C1 (relative stereo) [Example 48, (1 S,3R*)-1-(3-Fluoro-2-methylphenyl)-3-(5-fluoro-6-(2-(pyrrolidin-1-yl)ethoxy)pyridin-3-yl)-N-hydroxycyclopentanecarboxamide] | 320 nM | 750 nM
Cc1cc(F)ccc1C1(C(=O)NO)CCCC1 [Example 35, 1-(4-Fluoro-2-methylphenyl)-N-hydroxycyclopentanecarboxamide] | 570 nM | 5600 nM
Cc1c(F)cccc1[C@]1(C(=O)NO)CC[C@@H](c2ccnn2C)C1 (relative stereo) [Example 49, (1S,3R*)-1-(3-Fluoro-2-methylphenyl)-N-hydroxy-3-(1-methyl-1H-pyrazol-5-yl)cyclopentane carboxamide] | 170 nM | 400 nM
Cc1c(F)cccc1[C@]1(C(=O)NO)CC[C@@H](c2ccc3c(cnn3C)c2)C1 (relative stereo) [Example 63, (1S,3R*)-1-(3-fluoro-2-methylphenyl)-N-hydroxy-3-(1-methyl-1H-indazol-5-yl)cyclopentanecarboxamide] | 110 nM | 140 nM
Cc1c(F)cccc1[C@]1(C(=O)NO)CC[C@@H](c2cc(F)cnc2C2CC2)C1 [Example 43, (1S,3R)-3-(2-cyclopropyl-5-fluoropyridin-3-yl)-1-(3-fluoro-2-methylphenyl)-N-hydroxycyclopentanecarboxamide] | 240 nM | 610 nM
Cc1c(F)cccc1[C@]1(C(=O)NO)CC[C@H](c2ccn3ccnc3c2)C1 (relative stereo) [Example 58, (1S,3S*)-1-(3-fluoro-2-methylphenyl)-N-hydroxy-3-(imidazo[1,2-a]pyridin-7-yl)cyclopentanecarboxamide] | 82 nM | 300 nM

More lines, in order of falling IC50 [1], values ahead:

IC50 [1] | IC50 [2] | SMILES
11000 nM | 46000 nM | O=C(NO)C1(c2ccccc2C(F)(F)F)CCCC1 [Example 34, N-Hydroxy-1-(2-(trifluoromethyl)phenyl)cyclopentanecarboxamide]
2500 nM | 15600 nM | O=C(NO)C1(c2c(F)cccc2Cl)CCCC1 [Example 22, 1-(2-Chloro-6-fluorophenyl)-N-hydroxycyclopentanecarboxamide]
1500 nM | 12000 nM | Cc1cccc(F)c1C1(C(=O)NO)CCCC1 [Example 37, 1-(2-Fluoro-6-methylphenyl)-N-hydroxycyclopentanecarboxamide]
290 nM | 1600 nM | Cc1c(F)cccc1[C@]1(C(=O)NO)CC[C@@H](Oc2ccc3cnn(C)c3c2)C1 [Example 91, (1S,3R)-1-(3-Fluoro-2-methylphenyl)-N-hydroxy-3-((1-methyl-1H-indazol-6-yl)oxy)cyclopentanecarboxamide]
280 nM | 2530 nM | Cc1c(Cl)cccc1C1(C(=O)NO)CCCC1 [Example 17, 1-(3-chloro-2-methylphenyl)-N-hydroxycyclopentanecarboxamide]
46 nM | 160 nM | Cc1c(F)cccc1[C@]1(C(=O)NO)CC[C@H](c2ccc3cnn(C(F)F)c3c2)C1 (relative stereo) [Example 55, (1S,3S*)-3-(1-(difluoromethyl)-1H-indazol-6-yl)-1-(3-fluoro-2-methylphenyl)-N-hydroxycyclopentanecarboxamide]
